The test system of data set [1] is CYP1A1 protein expression in IGROV-1 cells. Briefly: Western blot of CYP1A1 protein, IGROV-1 lysates. In kind it is cell-based, human. The conditions noted are these: 10 nM to 10 μM, 24 h, result not shown. As for the experimental part: Whole cell lysates were prepared for examination of CYP1A1 protein expression from untreated MCF-7, IGROV-1 and HCT 116 cultures and following exposure of cells to compounds 1, 2, 2a, 2b, 3, 3a, 3b, 4, 4a and 4b. Following protein determination (n=3, [Bradford, 1976]) and addition of sample buffer, samples were boiled at 95°C for 5 min and solubilised proteins (50 μg) were separated by sodium dodecyl sulphate (SDS) polyacrylamide gel (10%) electrophoresis. Proteins were electroblotted to polyvinylidene difluoride (PVDF) membranes and probed for CYP1A1 protein with polyclonal antiserum specific for human CYP1A1/1A2 (Gentest Corporation). Secondary antibody was conjugated to alkaline phosphatase, and CYP1A1 was detected following brief (<10 min) incubation with bromochloroindolyl phosphate and nitro-blue tetrazolium in alkaline phosphatase buffer. Molecular weight markers and a positive control of recombinant CYP1A1 (Gentest Corporation), included in all blots, confirmed detection of 52 kDa CYP1A1 protein.

The test system of the next data set is NCI-H522. Briefly: NCI in vitro cytotoxicity assay (SRB), NCI-H522. In kind it is cell-based. The note with it: Homo sapiens, 48 h exposure, sulforhodamine B assay, mean graph, read-out: Log10 GI50 (NCI-H522) (converted). On the procedure: (§1) Cell culture and drug application procedures have been described previously ([Boyd and Paull, 1995]). Briefly, cell lines were inoculated into a series of 96-well microtiter plates, with varied seeding densities depending on growth characteristics of each cell line. Following a 24 h drug free incubation, test agents were added at five 10-fold dilutions with a maximum concentration of 100 μM. Cellular protein levels were determined after 48 h drug exposure by sulphorhodamine B colorimetry.
(In general: Sulforhodamine B stains cellular protein and so reports cell mass.)

For another data set, the system named is CCRF-CEM. Briefly: NCI in vitro cytotoxicity assay (SRB), CCRF-CEM. The note with it: Homo sapiens, 48 h exposure, sulforhodamine B assay, mean graph, read-out: Log10 GI50 (CCRF-CEM) (converted). In kind it is cell-based. As for the experimental part:
as §1

The next data set has as its system MDA-N. Briefly: NCI in vitro cytotoxicity assay (SRB), MDA-N. The format is cell-based. The note with it: Homo sapiens, 48 h exposure, sulforhodamine B assay, mean graph, read-out: Log10 GI50 (MDA-N) (converted). As for the experimental part: as §1
For a further data set, the system named is EKVX. The data set is described as follows: NCI in vitro cytotoxicity assay (SRB), EKVX. The conditions noted are these: Homo sapiens, 48 h exposure, sulforhodamine B assay, mean graph, read-out: Log10 GI50 (EKVX) (converted). The format is cell-based. On the procedure: as §1
Another data set concerns CAKI-1. The data set is described as follows: NCI in vitro cytotoxicity assay (SRB), CAKI-1. In kind it is cell-based. The note with it: Homo sapiens, 48 h exposure, sulforhodamine B assay, mean graph, read-out: Log10 GI50 (CAKI-1) (converted). As for the experimental part: as §1

These results are taken from PMC2375326, “In vitro evaluation of amino acid prodrugs of novel antitumour 2-(4-amino-3-methylphenyl)benzothiazoles” (British Journal of Cancer, 2002).

With `Cc1cc(-c2nc3cc(F)ccc3s2)ccc1NC(=O)[C@@H](N)CCCCN` [Compound 2b], the “CYP1A1 protein expression (Western blot)” value in data set [1] was “clearly observed”.
On to `Cc1cc(-c2nc3cc(F)ccc3s2)ccc1N` [Compound 2, 2-(4-Amino-3-methylphenyl)-5-fluorobenzothiazole], for which the GI50 (in general, the concentration giving 50% growth inhibition) in the data set on NCI-H522 was 28.8 µM; in the data set with CCRF-CEM, 1.23 µM; in the data set on MDA-N, above 100 µM; in the data set with EKVX, 1.41 µM; in the data set with CAKI-1 it was 25.7 µM.
